Assay results: ChEMBL document CHEMBL1629448, “Identification and synthesis of novel inhibitors of acetyl-CoA carboxylase with in vitro and in vivo efficacy on fat oxidation” (J Med Chem, 2010)
Calls of active or inactive are those of the source. The rule behind the calls is not given here.

Assays:
[1] = target: Acetyl-CoA carboxylase 2 (Homo sapiens, UniProt O00763); assay: Inhibition of N-terminal His-tagged human recombinant ACC2 expressed in high five insect cells by ATP consumption assay
[2] = target: Acetyl-CoA carboxylase 1 (Homo sapiens, UniProt Q13085); assay: Inhibition of N-terminal His-tagged human recombinant ACC1 expressed in high five insect cells by ATP consumption assay
[3] = (§1) Inhibition of N-terminal His-tagged rat recombinant ACC2 expressed in high five insect cells by ATP consumption assay
[4] = target: Acetyl-CoA carboxylase 1 (Rattus norvegicus, UniProt P11497); assay: (§2) Inhibition of N-terminal His-tagged rat recombinant ACC1 expressed in high five insect cells by ATP consumption assay
[5] = species on record: Rattus norvegicus; assay: as §1
[6] = target: Acetyl-CoA carboxylase 1 (Rattus norvegicus) (UniProt P11497); assay: as §2

Acetyl-CoA carboxylase 2, sequence (O00763 whole entry): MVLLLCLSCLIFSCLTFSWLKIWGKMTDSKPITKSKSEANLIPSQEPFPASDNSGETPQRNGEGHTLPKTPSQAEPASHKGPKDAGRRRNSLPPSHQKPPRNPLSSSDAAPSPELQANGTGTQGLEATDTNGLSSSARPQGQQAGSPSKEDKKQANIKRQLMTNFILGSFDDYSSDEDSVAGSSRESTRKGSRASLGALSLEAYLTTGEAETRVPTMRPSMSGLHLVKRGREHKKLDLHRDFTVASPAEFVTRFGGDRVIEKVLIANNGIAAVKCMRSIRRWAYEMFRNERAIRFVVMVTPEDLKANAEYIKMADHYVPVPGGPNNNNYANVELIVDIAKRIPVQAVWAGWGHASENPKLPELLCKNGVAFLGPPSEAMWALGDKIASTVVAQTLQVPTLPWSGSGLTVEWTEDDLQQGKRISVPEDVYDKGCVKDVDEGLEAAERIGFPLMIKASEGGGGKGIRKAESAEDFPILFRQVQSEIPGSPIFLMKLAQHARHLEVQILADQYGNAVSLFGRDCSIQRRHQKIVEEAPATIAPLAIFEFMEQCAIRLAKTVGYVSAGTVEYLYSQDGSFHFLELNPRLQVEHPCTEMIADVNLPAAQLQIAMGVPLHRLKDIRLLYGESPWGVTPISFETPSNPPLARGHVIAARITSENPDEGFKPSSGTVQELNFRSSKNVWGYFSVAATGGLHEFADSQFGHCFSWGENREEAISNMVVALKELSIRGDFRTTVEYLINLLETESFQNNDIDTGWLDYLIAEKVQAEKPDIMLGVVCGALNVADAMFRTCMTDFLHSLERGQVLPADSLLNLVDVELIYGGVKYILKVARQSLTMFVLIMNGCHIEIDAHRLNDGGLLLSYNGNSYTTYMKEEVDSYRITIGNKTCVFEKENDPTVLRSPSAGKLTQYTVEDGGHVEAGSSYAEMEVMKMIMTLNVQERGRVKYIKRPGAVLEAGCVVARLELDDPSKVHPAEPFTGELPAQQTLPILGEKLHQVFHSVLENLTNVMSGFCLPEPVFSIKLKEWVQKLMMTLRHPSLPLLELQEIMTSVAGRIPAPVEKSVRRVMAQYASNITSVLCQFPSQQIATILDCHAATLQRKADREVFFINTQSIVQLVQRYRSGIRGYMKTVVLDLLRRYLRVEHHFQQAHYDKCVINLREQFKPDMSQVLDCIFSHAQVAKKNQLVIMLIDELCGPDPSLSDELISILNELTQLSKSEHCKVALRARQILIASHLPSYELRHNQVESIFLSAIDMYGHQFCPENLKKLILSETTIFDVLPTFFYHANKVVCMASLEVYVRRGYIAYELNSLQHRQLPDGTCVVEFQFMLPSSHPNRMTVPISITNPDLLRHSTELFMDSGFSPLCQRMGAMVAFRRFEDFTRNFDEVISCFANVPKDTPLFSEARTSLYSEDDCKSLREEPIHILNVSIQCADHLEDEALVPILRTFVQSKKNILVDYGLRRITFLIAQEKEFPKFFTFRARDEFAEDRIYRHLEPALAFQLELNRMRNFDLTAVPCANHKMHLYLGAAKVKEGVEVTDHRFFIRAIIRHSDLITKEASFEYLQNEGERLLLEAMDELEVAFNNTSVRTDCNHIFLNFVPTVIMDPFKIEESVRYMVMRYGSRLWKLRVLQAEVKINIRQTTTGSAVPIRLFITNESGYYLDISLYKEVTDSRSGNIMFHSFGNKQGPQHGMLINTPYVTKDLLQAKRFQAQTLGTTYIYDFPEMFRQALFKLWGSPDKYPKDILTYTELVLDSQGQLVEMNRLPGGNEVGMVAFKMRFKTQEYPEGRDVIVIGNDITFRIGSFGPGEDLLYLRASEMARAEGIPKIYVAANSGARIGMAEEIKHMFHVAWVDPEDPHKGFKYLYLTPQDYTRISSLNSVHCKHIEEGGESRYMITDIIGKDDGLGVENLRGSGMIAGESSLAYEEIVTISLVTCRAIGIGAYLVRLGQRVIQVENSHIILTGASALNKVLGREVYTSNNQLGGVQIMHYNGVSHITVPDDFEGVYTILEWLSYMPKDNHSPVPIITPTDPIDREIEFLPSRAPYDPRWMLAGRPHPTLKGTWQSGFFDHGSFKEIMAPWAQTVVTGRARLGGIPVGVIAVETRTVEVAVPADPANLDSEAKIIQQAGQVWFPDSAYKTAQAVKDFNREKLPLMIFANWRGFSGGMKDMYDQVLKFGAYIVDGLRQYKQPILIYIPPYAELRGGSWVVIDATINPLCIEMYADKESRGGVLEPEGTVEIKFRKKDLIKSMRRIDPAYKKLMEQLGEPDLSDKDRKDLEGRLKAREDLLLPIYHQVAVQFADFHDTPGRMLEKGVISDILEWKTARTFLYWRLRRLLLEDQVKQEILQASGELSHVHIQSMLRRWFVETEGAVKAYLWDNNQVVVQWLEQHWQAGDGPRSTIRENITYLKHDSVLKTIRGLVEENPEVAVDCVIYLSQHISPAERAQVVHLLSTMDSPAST

| SMILES | IC50 [1] [nM] | IC50 [2] [nM] | IC50 [3] [nM] | IC50 [4] [nM] | inhibition [2] | inhibition [5] | inhibition [6] |
| --- | --- | --- | --- | --- | --- | --- | --- |
| CC(CCc1ccc(Oc2ccc(OC(C)C)nc2)cc1)NC(=O)C1CC1 (centres undefined) | 190 | 620 | 1900 | 3200 |  |  |  |
| CC(=O)NCCC[C@H]1OC[C@H](Oc2ccc(OCc3ccccc3)cn2)CO1 | 70 | 14600 | > 30000 | 14000 |  |  |  |
| CC(=O)NCCCc1ccc(Oc2ccc(OC3CCCC3)cn2)cc1 | 1280 | > 30000 | > 30000 | > 30000 |  |  |  |
| CC(C)Oc1ccc(Oc2ccc(CC[C@H](C)NC(=O)C3CC3)cc2)cn1 | 80 | 360 | 700 | 800 |  |  |  |
| O=C(c1c2ccccc2cc2ccccc12)N1CCC(N2CCC[C@@H](C(=O)N3CCOCC3)C2)CC1 | 70 | 910 | 280 |  |  |  |  |
| CC(=O)NC(C)CCc1ccc(Oc2ccc(OC3CCCC3)cn2)cc1 (centres undefined) |  | 1100 | 7900 | 2900 |  |  |  |
| CC(=O)NCCC[C@H]1OC[C@H](Oc2ccc(OC3CCCC3)cc2)CO1 | 190 | 3900 | 12000 | 13000 |  |  |  |
| CC(=O)N[C@@H](C)C#Cc1cnc(Oc2ccc(OC(C)C)cc2)s1 | 60 | > 10000 | 380 | > 10000 |  |  |  |
| CC(=O)N[C@@H](C)CCc1ccc(Oc2ccc(OC(C)C)cn2)cc1 |  | 1800 | 6750 | 2600 |  |  |  |
| CC(=O)NCCC[C@H]1OC[C@@H](Oc2ccc(OCc3ccccc3)cc2)CO1 | > 30000 |  |  |  |  |  |  |
| CC(CCc1ccc(Oc2ccc(OC(C)C)nc2)cc1)NC(N)=O (centres undefined) |  | 1200 | 3000 | 2900 |  |  |  |
| CC(=O)N[C@H](C)CCc1ccc(Oc2ccc(OC(C)C)nc2)cc1 | 7800 | 9900 | > 30000 | > 30000 |  |  |  |
| CC(=O)NC(C)CCc1ccc(Oc2ccc(OCc3ccccc3)nc2)cc1 (centres undefined) | 80 | 1100 | 7900 | 700 |  |  |  |
| CC(=O)NCCCC1OCC(Cc2cccc(OCCC3CCCC3)c2)CO1 (centres undefined) | 270 | 2700 | 17000 | 25000 |  |  |  |
| CC(CCc1ccc(Oc2ccc(OC(C)C)nc2)cc1)NC=O (centres undefined) |  | 5700 | 17000 | 11000 |  |  |  |
| CC(=O)N[C@@H](C)CCc1ccc(Oc2ccc(OCc3ccccc3)cn2)cc1 |  | 920 | > 30000 | 1200 |  |  |  |
| CC(=O)NCCCC1OCC(Cc2cccc(OCCC3CC3)c2)CO1 (centres undefined) | 2650 | > 30000 | > 30000 | > 30000 |  |  |  |
| CC(=O)NC(C)CCc1ccc(Oc2ccc(OCc3ccccc3)cn2)cc1 (centres undefined) | 210 | 750 | > 30000 | 2100 |  |  |  |
| CC(=O)NC(C)CCc1ccc(Oc2cnc(OC(C)C)nc2)cc1 (centres undefined) | 700 | 3000 | 20000 | 7400 |  |  |  |
| CC(=O)N[C@@H](C)CO[C@H]1CC[C@H](Oc2ccc(OC(C)C)nc2)CC1 | 60 | 2300 | 600 | 10500 |  |  |  |
| CC(=O)NC(C)CCc1ccc(Oc2ccc(OC(C)C)cn2)cc1 (centres undefined) |  | 1780 | 4520 | 2600 |  |  |  |
| CC(=O)N[C@@H](C)CC[C@H]1CC[C@H](Oc2ccc(OC(C)C)nc2)CC1 | 15 | 140 | 200 | 1140 |  |  |  |
| CC(=O)NCCCC1OCC(Cc2cccc(OCCc3ccccc3)c2)CO1 (centres undefined) | 2100 | > 30000 | > 30000 | > 30000 |  |  |  |
| CC(=O)NC(C)CCc1ccc(Oc2ccc(OC(C)C)nn2)cc1 (centres undefined) | 6700 | 12700 | > 30000 | > 30000 |  |  |  |
| CC(=O)NCCCC1OCC(Cc2cccc(OCC3CCC3)c2)CO1 (centres undefined) | 700 | 21000 | > 30000 | > 30000 |  |  |  |
| CC(=O)NCCC[C@H]1OC[C@H](Oc2ccc(OCc3ccccc3)cc2)CO1 |  | > 30000 | > 30000 | > 30000 |  |  |  |
| CC(=O)NC(C)CCc1ccc(OC2=NCC(OC(C)C)N=C2)cc1 (centres undefined) | 1200 | > 30000 | > 30000 | > 30000 |  |  |  |
| CC(=O)NCCCC1OCC(c2cccc3cc(OC4CCCC4)ccc23)CO1 (centres undefined) | 630 | > 30000 | > 30000 | > 30000 | inactive | inactive | inactive |
| CC(=O)N[C@H](C)CCc1ccc(Oc2ccc(OCc3ccccc3)cn2)cc1 | > 30000 |  |  |  |  |  |  |
| COC(=O)NC(C)CCc1ccc(Oc2ccc(OC(C)C)nc2)cc1 (centres undefined) | 250 | 1200 | 3900 | 2900 |  |  |  |
